Experiments:
HDAC1 = HDAC1 (Homo sapiens (Human), UniProt Q13547); assay: HDAC1 enzymatic assay; format: biochemical; conditions: read-out: Human HDAC1 IC50
Method in brief: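 HDAC1 activity was measured in duplicate 50 μl reactions containing 0.5 ng HDAC1, 10 uM of HDAC substrate, and test compound in buffer (50 mM Tris-HCl, pH 7.4, 137 mM NaCl, 2.7 mM KCl, 0.05% Tween 20, 5 μg BSA) with 1% DMSO, incubated 17 hours at room temperature. HDAC Developer was then added for 20 minutes and fluorescence read at 360/460 nm.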

HDAC6 = HDAC6 (Homo sapiens (Human), UniProt Q9UBN7); assay: HDAC6 enzymatic assay; format: biochemical; conditions: read-out: Human HDAC6 IC50
HDAC6, sequence (Q9UBN7 whole entry): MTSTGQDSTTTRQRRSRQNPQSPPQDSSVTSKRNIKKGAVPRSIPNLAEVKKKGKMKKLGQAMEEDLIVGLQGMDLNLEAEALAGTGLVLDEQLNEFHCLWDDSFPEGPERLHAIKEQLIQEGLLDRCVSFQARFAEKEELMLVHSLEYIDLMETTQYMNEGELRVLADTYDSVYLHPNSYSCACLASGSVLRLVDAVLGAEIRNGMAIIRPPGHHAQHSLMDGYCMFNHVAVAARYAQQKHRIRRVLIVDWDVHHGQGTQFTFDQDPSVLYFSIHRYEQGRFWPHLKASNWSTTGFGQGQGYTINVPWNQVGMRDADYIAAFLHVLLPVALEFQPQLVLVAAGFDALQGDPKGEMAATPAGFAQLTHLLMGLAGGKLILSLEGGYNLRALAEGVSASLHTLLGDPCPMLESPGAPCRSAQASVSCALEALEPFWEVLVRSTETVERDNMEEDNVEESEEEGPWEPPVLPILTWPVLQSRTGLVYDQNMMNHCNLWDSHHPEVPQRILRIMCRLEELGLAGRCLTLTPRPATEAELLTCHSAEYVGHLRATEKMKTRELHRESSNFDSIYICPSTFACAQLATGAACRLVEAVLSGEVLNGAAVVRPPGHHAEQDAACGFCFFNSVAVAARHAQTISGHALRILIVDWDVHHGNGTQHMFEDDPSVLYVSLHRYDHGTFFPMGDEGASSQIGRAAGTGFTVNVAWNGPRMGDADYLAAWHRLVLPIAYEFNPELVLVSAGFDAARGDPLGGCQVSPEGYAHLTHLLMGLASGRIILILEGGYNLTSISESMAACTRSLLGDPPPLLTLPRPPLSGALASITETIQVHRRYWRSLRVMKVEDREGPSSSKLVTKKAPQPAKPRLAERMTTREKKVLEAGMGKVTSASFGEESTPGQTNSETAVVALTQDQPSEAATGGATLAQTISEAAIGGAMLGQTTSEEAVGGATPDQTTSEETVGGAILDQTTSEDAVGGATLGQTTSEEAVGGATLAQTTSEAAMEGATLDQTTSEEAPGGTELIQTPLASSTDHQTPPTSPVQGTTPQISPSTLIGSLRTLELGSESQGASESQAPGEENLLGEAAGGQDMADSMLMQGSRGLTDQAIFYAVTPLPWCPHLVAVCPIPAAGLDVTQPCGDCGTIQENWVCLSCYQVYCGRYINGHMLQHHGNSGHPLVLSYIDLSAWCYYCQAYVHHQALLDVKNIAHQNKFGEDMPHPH
Method in brief: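 Human HDAC6 activity was measured in duplicate 50 μl reactions holding 2 ng HDAC6, 10 uM of HDAC substrate and test compound in HDAC assay buffer (50 mM Tris-HCl, pH 7.4, 137 mM NaCl, 2.7 mM KCl, 0.05% Tween 20, 5 μg BSA) with 1% DMSO, for 17 hours at room temperature. HDAC Developer was added for 20 minutes before reading fluorescence at 360/460 nm.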

HDAC1, sequence (Q13547 whole entry): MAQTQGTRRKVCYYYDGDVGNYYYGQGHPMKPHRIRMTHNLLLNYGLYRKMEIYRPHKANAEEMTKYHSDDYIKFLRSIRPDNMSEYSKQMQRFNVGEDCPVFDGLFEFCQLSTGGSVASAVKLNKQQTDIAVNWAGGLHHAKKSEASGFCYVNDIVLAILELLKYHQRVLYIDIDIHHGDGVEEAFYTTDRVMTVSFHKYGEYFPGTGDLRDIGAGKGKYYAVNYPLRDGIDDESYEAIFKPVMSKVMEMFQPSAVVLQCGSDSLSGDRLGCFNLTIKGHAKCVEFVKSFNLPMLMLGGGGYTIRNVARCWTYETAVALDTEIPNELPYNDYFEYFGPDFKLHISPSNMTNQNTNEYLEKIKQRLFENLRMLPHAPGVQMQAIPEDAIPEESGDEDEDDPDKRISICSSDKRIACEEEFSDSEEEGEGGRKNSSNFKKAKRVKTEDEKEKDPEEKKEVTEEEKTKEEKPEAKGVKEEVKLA

Compound	IC50 (HDAC1)	IC50 (HDAC6)
O=S(=O)(NCC(Nc1ncc(-c2nnc(C(F)F)o2)cn1)c1ccc(OC(F)(F)F)cc1)C1CC1 (stereo not drawn) [158(+), N-(2-((5-(5-(difluoromethyl)-1,3,4-oxadiazol-2-yl)pyrimidin-2-yl)amino)-2-(4-(trifluoromethoxy)phenyl)ethyl)cyclopropanesulfonamide]	> 30 µM	0.051 µM
CN(CC(Nc1ncc(-c2nnc(C(F)F)o2)cn1)c1ccc(OC(F)(F)F)cc1)S(=O)(=O)C1CC1 (stereo not drawn) [159(+), N-(2-((5-(5-(difluoromethyl)-1,3,4-oxadiazol-2-yl)pyrimidin-2-yl)amino)-2-(4-(trifluoromethoxy)phenyl)ethyl)-N-methylcyclopropanesulfonamide]	> 30 µM	0.09 µM
O=S(=O)(C1CC1)N(CC(Nc1ncc(-c2nnc(C(F)F)o2)cn1)c1ccc(OC(F)(F)F)cc1)CC(F)(F)F (stereo not drawn) [160(+), N-(2-((5-(5-(difluoromethyl)-1,3,4-oxadiazol-2-yl)pyrimidin-2-yl)amino)-2-(4-(trifluoromethoxy)phenyl)ethyl)-N-(2,2,2-trifluoroethyl)cyclopropanesulfonamide]	> 30 µM	0.58 µM
FC(F)(F)c1nnc(-c2cnc(NC3(c4ccccc4)CC3)nc2)o1 [Example 1, N-(1-phenylcyclopropyl)-5-(5-(trifluoromethyl)-1,3,4-oxadiazol-2-yl) pyrimidin-2-amine]	> 30 µM	0.21 µM
CC(Nc1ncc(-c2nnc(C(F)(F)F)o2)cn1)c1ccccc1 (stereo not shown) [Example 2, N-(1-phenylethyl)-5-(5-(trifluoromethyl)-1,3,4-oxadiazol-2-yl)pyrimidin-2-amine]	> 30 µM	0.39 µM
Cc1cccc(CNc2ncc(-c3nnc(C(F)(F)F)o3)cn2)n1 [Example 3, N-((6-methylpyridin-2-yl)methyl)-5-(5-(trifluoromethyl)-1,3,4-oxadiazol-2-yl) pyrimidin-2-amine]	> 30 µM	0.23 µM
CC(Nc1ncc(-c2nnc(C(F)F)o2)cn1)c1ccccc1 (stereo not shown) [Example 6, 5-(5-(difluoromethyl)-1,3,4-oxadiazol-2-yl)-N-(1-phenylethyl)pyrimidin-2-amine]	> 30 µM	0.057 µM
FC(F)c1nnc(-c2cnc(NC(c3ccccc3)c3ccccc3)nc2)o1 [Example 7, N-benzhydryl-5-(5-(difluoromethyl)-1,3,4-oxadiazol-2-yl)pyrimidin-2-amine]	> 30 µM	1.7 µM
CN(c1ncc(-c2nnc(C(F)F)o2)cn1)C1(c2ccc(F)cc2)CC1 [Example 8, 5-(5-(difluoromethyl)-1,3,4-oxadiazol-2-yl)-N-(1-(4-fluorophenyl)cyclopropyl)-N-methylpyrimidin-2-amine]	> 30 µM	9 µM
Fc1ccc(C2(Nc3ncc(-c4nnc(C(F)F)o4)cn3)CC2)c(F)c1 [Example 10, 5-(5-(difluoromethyl)-1,3,4-oxadiazol-2-yl)-N-(1-(2,4-difluorophenyl)cyclopropyl)pyrimidin-2-amine]	> 100 µM	0.009 µM
FC(F)c1nnc(-c2cnc(OC3(c4ccccc4)CC3)nc2)o1 [Example 12, 2-(difluoromethyl)-5-(2-(1-phenylcyclopropoxy)pyrimidin-5-yl)-1,3,4-oxadiazole]	> 30 µM	0.21 µM
Fc1ccc(-c2ccccc2C2(Nc3ncc(-c4nnc(C(F)F)o4)cn3)CC2)cc1 [Example 14, 5-(5-(difluoromethyl)-1,3,4-oxadiazol-2-yl)-N-(1-(4′-fluoro-[1,1′-biphenyl]-2-yl)cyclopropyl)pyrimidin-2-amine]	> 30 µM	> 30 µM
Fc1ccc(C(Nc2ncc(-c3nnc(C(F)F)o3)cn2)C(F)(F)F)cc1 (stereo not shown) [Example 15, 5-(5-(difluoromethyl)-1,3,4-oxadiazol-2-yl)-N-(2,2,2-trifluoro-1-(4-fluorophenyl)ethyl)pyrimidin-2-amine]	> 30 µM	0.074 µM
Fc1ccc(-c2ccc(C3(Nc4ncc(-c5nnc(C(F)F)o5)cn4)CC3)cc2)cc1 [Example 16, 5-(5-(difluoromethyl)-1,3,4-oxadiazol-2-yl)-N-(1-(4′-fluoro-[1,1′-biphenyl]-4-yl)cyclopropyl) pyrimidin-2-amine]	> 30 µM	0.095 µM
Fc1ccc(C2(Nc3ncc(-c4nnc(C(F)F)o4)cn3)CCN(c3ccccc3)CC2)cc1 [Example 17, 5-(5-(difluoromethyl)-1,3,4-oxadiazol-2-yl)-N-(4-(4-fluorophenyl)-1-phenylpiperidin-4-yl)pyrimidin-2-amine]	> 30 µM	0.16 µM
Fc1ccc(-c2cccc(C3(Nc4ncc(-c5nnc(C(F)F)o5)cn4)CC3)c2)cc1 [Example 18, 5-(5-(difluoromethyl)-1,3,4-oxadiazol-2-yl)-N-(1-(4′-fluoro-[1,1′-biphenyl]-3-yl)cyclopropyl)pyrimidin-2-amine]	> 30 µM	0.058 µM

Compound	IC50 (HDAC1)	IC50 (HDAC6)
Fc1ccc(C(COc2ccccc2)Nc2ncc(-c3nnc(C(F)F)o3)cn2)cc1 (stereo not shown) [Example 19, 5-(5-(difluoromethyl)-1,3,4-oxadiazol-2-yl)-N-(1-(4-fluorophenyl)-2-phenoxyethyl)pyrimidin-2-amine]	> 30 µM	0.047 µM
CC(Nc1ncc(-c2nnc(C(F)F)o2)cn1)c1ccc(F)cc1 (stereo not shown) [Example 20, 5-(5-(difluoromethyl)-1,3,4-oxadiazol-2-yl)-N-(1-(4-fluorophenyl)ethyl)pyrimidin-2-amine]	> 30 µM	0.033 µM
COCC(Nc1ncc(-c2nnc(C(F)F)o2)cn1)c1ccc(F)cc1 (stereo not shown) [Example 21, 5-(5-(difluoromethyl)-1,3,4-oxadiazol-2-yl)-N-(1-(4-fluorophenyl)-2-methoxyethyl)pyrimidin-2-amine]	> 30 µM	0.077 µM
CCC(Nc1ncc(-c2nnc(C(F)F)o2)cn1)c1ccc(F)cc1 (stereo not shown) [Example 22, 5-(5-(difluoromethyl)-1,3,4-oxadiazol-2-yl)-N-(1-(4-fluorophenyl)propyl)pyrimidin-2-amine]	> 30 µM	0.071 µM
CCCC(Nc1ncc(-c2nnc(C(F)F)o2)cn1)c1ccc(F)cc1 (stereo not shown) [Example 23, 5-(5-(difluoromethyl)-1,3,4-oxadiazol-2-yl)-N-(1-(4-fluorophenyl)butyl)pyrimidin-2-amine]	> 30 µM	0.1 µM
CC(C)C(Nc1ncc(-c2nnc(C(F)F)o2)cn1)c1ccc(F)cc1 (stereo not shown) [Example 24, 5-(5-(difluoromethyl)-1,3,4-oxadiazol-2-yl)-N-(1-(4-fluorophenyl)-2-methylpropyl)pyrimidin-2-amine]	> 30 µM	0.095 µM
N#Cc1ccc(C2(Nc3ncc(-c4nnc(C(F)F)o4)cn3)CC2)cn1 [Example 25, 5-(1-((5-(5-(difluoromethyl)-1,3,4-oxadiazol-2-yl)pyrimidin-2-yl)amino)cyclopropyl)picolinonitrile]	> 30 µM	> 1 µM
CC(=O)N1CCC(Nc2ncc(-c3nnc(C(F)F)o3)cn2)(c2ccc(F)cc2)CC1 [Example 26, 1-(4-((5-(5-(difluoromethyl)-1,3,4-oxadiazol-2-yl)pyrimidin-2-yl)amino)-4-(4-fluorophenyl)piperidin-1-yl)ethan-1-one]	> 30 µM	0.14 µM
FC(F)c1nnc(-c2cnc(NC3(C4CCCCC4)CC3)nc2)o1 [Example 27, N-(1-cyclohexylcyclopropyl)-5-(5-(difluoromethyl)-1,3,4-oxadiazol-2-yl)pyrimidin-2-amine]	> 30 µM	0.074 µM
CC(C)C1(Nc2ncc(-c3nnc(C(F)F)o3)cn2)CC1 [Example 28, 5-(5-(difluoromethyl)-1,3,4-oxadiazol-2-yl)-N-(1-isopropylcyclopropyl)pyrimidin-2-amine]	> 30 µM	0.61 µM
Fc1ccc2c(c1)CCC2Nc1ncc(-c2nnc(C(F)F)o2)cn1 (stereo not shown) [Example 29, 5-(5-(difluoromethyl)-1,3,4-oxadiazol-2-yl)-N-(5-fluoro-2,3-dihydro-1H-inden-1-yl)pyrimidin-2-amine]	> 30 µM	0.45 µM
O=C(C(Nc1ncc(-c2nnc(C(F)F)o2)cn1)c1ccc(F)cc1)N1CCOCC1 (stereo not shown) [Example 30, 2-((5-(5-(difluoromethyl)-1,3,4-oxadiazol-2-yl)pyrimidin-2-yl)amino)-2-(4-fluorophenyl)-1-morpholinoethan-1-one]	> 30 µM	0.77 µM
CC(Nc1ncc(-c2nnc(C(F)F)o2)cn1)c1ccc(F)cn1 (stereo not shown) [Example 31, 5-(5-(difluoromethyl)-1,3,4-oxadiazol-2-yl)-N-(1-(5-fluoropyridin-2-yl)ethyl)pyrimidin-2-amine]	> 30 µM	0.12 µM
FC(F)Oc1ccc(C2(Nc3ncc(-c4nnc(C(F)F)o4)cn3)CC2)cc1 [Example 32, N-(1-(4-(difluoromethoxy)phenyl)cyclopropyl)-5-(5-(difluoromethyl)-1,3,4-oxadiazol-2-yl)pyrimidin-2-amine]	> 30 µM	0.059 µM
Fc1cc(OC(F)F)ccc1C1(Nc2ncc(-c3nnc(C(F)F)o3)cn2)CC1 [Example 33, N-(1-(4-(difluoromethoxy)-2-fluorophenyl)cyclopropyl)-5-(5-(difluoromethyl)-1,3,4-oxadiazol-2-yl)pyrimidin-2-amine]	> 30 µM	0.029 µM
Fc1ccc2c(c1)CCCC2Nc1ncc(-c2nnc(C(F)F)o2)cn1 (stereo not shown) [Example 34, 5-(5-(difluoromethyl)-1,3,4-oxadiazol-2-yl)-N-(6-fluoro-1,2,3,4-tetrahydronaphthalen-1-yl)pyrimidin-2-amine]	> 30 µM	0.79 µM
